Patent publication US20260200928A1, “THERAPEUTIC COMPOUNDS” (Sanofi, priority 2022, published 2026)

Target: T1, human IL-17A (Homo sapiens, UniProt Q16552)
T1 construct: purchased R&D Systems 7955-IL/CF
T1 sequence (Q16552 24-155): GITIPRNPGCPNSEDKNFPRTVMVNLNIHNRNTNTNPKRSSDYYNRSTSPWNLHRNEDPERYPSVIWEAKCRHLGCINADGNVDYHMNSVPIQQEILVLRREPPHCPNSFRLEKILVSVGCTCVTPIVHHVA
Assay: IL-17A AlphaLISA competition assay (block of IL-17A binding to its receptor IL-17RA)
Settings: mean IC50 (n≥2), block of IL-17A binding to IL-17RA
Procedure, shortened: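 Human recombinant IL-17A (7.5 nM stock) pre-incubated 30 min at RT with compound, then IL-17RA/Fc (5 nM stock) added for 90 min; AlphaLISA read with anti-Fc acceptor beads, biotinylated anti-IL-17A antibody (5 nM) and streptavidin donor beads (3 h, dark). IC50 from 4-parameter logistic fit, normalised to DMSO and 4 μM reference inhibitor; n≥2.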

Row | IC50 [nM] | Compound
1 | 347 | COC[C@H](c1ccnc(NC(=O)[C@@H](NC(=O)C(C)c2cccc(C#N)c2)C2CCC(F)(F)CC2)c1)N1C[C@@H](C(F)(F)F)NC1=O (stereo partly drawn) [Example 205, 2-(3-cyanophenyl)-N-((S)-1-(4,4-difluorocyclohexyl)-2-((4-((S)-2-methoxy-1-((S)-2-oxo-4-(trifluoromethyl)imidazolidin-1-yl)ethyl)pyridin-2-yl)amino)-2-oxoethyl) propanamide]
2 | 157 | COC[C@H](c1ccnc(NC(=O)[C@@H](NC(=O)Cc2cccc(C#N)c2)C2CCC(F)(F)CC2)c1)N1C[C@@H](C(F)(F)F)NC1=O [Example 206, (S)-2-(2-(3-cyanophenyl)acetamido)-2-(4,4-difluorocyclohexyl)-N-(4-((S)-2-methoxy-1-((S)-2-oxo-4-(trifluoromethyl)imidazolidin-1-yl)ethyl)pyridin-2-yl)acetamide]
3 | 23 | CCc1nonc1C(=O)N[C@H](C(=O)Nc1cc([C@@H](CC)N2C[C@@H](C(F)(F)F)NC2=O)ccn1)C1CCC(F)(F)CC1 [Example 209, N-((S)-1-(4,4-difluorocyclohexyl)-2-oxo-2-((4-((R)-1-((S)-2-oxo-4-(trifluoromethyl)imidazolidin-1-yl)propyl)pyridin-2-yl)amino)ethyl)-4-ethyl-1,2,5-oxadiazole-3-carboxamide]
4 | 38 | CCc1nocc1C(=O)N[C@H](C(=O)Nc1cc([C@@H](CC)N2C[C@@H](C(F)(F)F)NC2=O)ccn1)C1CCC(F)(F)CC1 [Example 210, N-((S)-1-(4,4-difluorocyclohexyl)-2-oxo-2-((4-((R)-1-((S)-2-oxo-4-(trifluoromethyl)imidazolidin-1-yl)propyl)pyridin-2-yl)amino)ethyl)-3-ethylisoxazole-4-carboxamide]
5 | 33 | CC[C@H](c1ccnc(NC(=O)[C@@H](NC(=O)c2nonc2C)C2CCC(F)(F)CC2)c1)N1C[C@@H](C(F)(F)F)NC1=O [Example 211, N-((S)-1-(4,4-difluorocyclohexyl)-2-oxo-2-((4-((R)-1-((S)-2-oxo-4-(trifluoromethyl)imidazolidin-1-yl)propyl)pyridin-2-yl)amino)ethyl)-4-methyl-1,2,5-oxadiazole-3-carboxamide]
6 | 23 | CC[C@H](c1ccnc(NC(=O)[C@@H](NC(=O)c2nonc2C2CC2)C2CCC(F)(F)CC2)c1)N1C[C@@H](C(F)(F)F)NC1=O [Example 212, 4-cyclopropyl-N-((S)-1-(4,4-difluorocyclohexyl)-2-oxo-2-((4-((R)-1-((S)-2-oxo-4-(trifluoromethyl)imidazolidin-1-yl)propyl)pyridin-2-yl)amino)ethyl)-1,2,5-oxadiazole-3-carboxamide]
7 | 28 | CC[C@H](c1ccnc(NC(=O)[C@@H](NC(=O)c2ccnn2CC)C2CCC(F)(F)CC2)c1)N1C[C@@H](C(F)(F)F)NC1=O [Example 213, N-((S)-1-(4,4-difluorocyclohexyl)-2-oxo-2-((4-((R)-1-((S)-2-oxo-4-(trifluoromethyl)imidazolidin-1-yl)propyl)pyridin-2-yl)amino)ethyl)-1-ethyl-1H-pyrazole-5-carboxamide]
8 | 46 | CC[C@H](c1ccnc(NC(=O)[C@@H](NC(=O)c2ccnn2C)C2CCC(F)(F)CC2)c1)N1C[C@@H](C(F)(F)F)NC1=O [Example 214, N-((S)-1-(4,4-difluorocyclohexyl)-2-oxo-2-((4-((R)-1-((S)-2-oxo-4-(trifluoromethyl)imidazolidin-1-yl)propyl)pyridin-2-yl)amino)ethyl)-1-methyl-1H-pyrazole-5-carboxamide]
9 | 65 | CC[C@H](c1ccnc(NC(=O)[C@@H](NC(=O)c2ccnn2C(C)C)C2CCC(F)(F)CC2)c1)N1C[C@@H](C(F)(F)F)NC1=O [Example 215, N-((S)-1-(4,4-difluorocyclohexyl)-2-oxo-2-((4-((R)-1-((S)-2-oxo-4-(trifluoromethyl)imidazolidin-1-yl)propyl)pyridin-2-yl)amino)ethyl)-1-isopropyl-1H-pyrazole-5-carboxamide]
10 | 158 | CCc1oncc1C(=O)N[C@H](C(=O)Nc1cc(C[C@H]2C[C@@H](C(F)(F)F)NC2=O)ccn1)C1CCC(F)(F)CC1 [Example 218, N-((S)-1-(4,4-difluorocyclohexyl)-2-oxo-2-((4-(((3S,5S)-2-oxo-5-(trifluoromethyl)pyrrolidin-3-yl)methyl)pyridin-2-yl)amino)ethyl)-5-ethylisoxazole-4-carboxamide]
11 | 80 | CC(C)c1oncc1C(=O)N[C@H](C(=O)Nc1cc(C[C@H]2C[C@@H](C(F)(F)F)NC2=O)ccn1)C1CCC(F)(F)CC1 [Example 219, N-((S)-1-(4,4-difluorocyclohexyl)-2-oxo-2-((4-(((3S,5S)-2-oxo-5-(trifluoromethyl)pyrrolidin-3-yl)methyl)pyridin-2-yl)amino)ethyl)-5-isopropylisoxazole-4-carboxamide]
12 | 48 | CCc1nonc1C(=O)N[C@H](C(=O)Nc1cc(C[C@H]2C[C@@H](C(F)(F)F)NC2=O)ccn1)C1CCC(F)(F)CC1 [Example 220, N-((S)-1-(4,4-difluorocyclohexyl)-2-oxo-2-((4-(((3S,5S)-2-oxo-5-(trifluoromethyl)pyrrolidin-3-yl)methyl)pyridin-2-yl)amino)ethyl)-4-ethyl-1,2,5-oxadiazole-3-carboxamide]
13 | 157 | Cc1nonc1C(=O)N[C@H](C(=O)Nc1cc(C[C@H]2C[C@@H](C(F)(F)F)NC2=O)ccn1)C1CCC(F)(F)CC1 [Example 221, N-((S)-1-(4,4-difluorocyclohexyl)-2-oxo-2-((4-(((3S,5S)-2-oxo-5-(trifluoromethyl)pyrrolidin-3-yl)methyl)pyridin-2-yl)amino)ethyl)-4-methyl-1,2,5-oxadiazole-3-carboxamide]
14 | 70 | O=C(N[C@H](C(=O)Nc1cc(C[C@H]2C[C@@H](C(F)(F)F)NC2=O)ccn1)C1CCC(F)(F)CC1)c1nonc1C1CC1 [Example 222, 4-cyclopropyl-N-((S)-1-(4,4-difluorocyclohexyl)-2-oxo-2-((4-(((3S,5S)-2-oxo-5-(trifluoromethyl)pyrrolidin-3-yl)methyl)pyridin-2-yl)amino)ethyl)-1,2,5-oxadiazole-3-carboxamide]
15 | 84 | CCn1nccc1C(=O)N[C@H](C(=O)Nc1cc(C[C@H]2C[C@@H](C(F)(F)F)NC2=O)ccn1)C1CCC(F)(F)CC1 [Example 223, N-((S)-1-(4,4-difluorocyclohexyl)-2-oxo-2-((4-(((3S,5S)-2-oxo-5-(trifluoromethyl)pyrrolidin-3-yl)methyl)pyridin-2-yl)amino)ethyl)-1-ethyl-1H-pyrazole-5-carboxamide]
16 | 135 | Cn1nccc1C(=O)N[C@H](C(=O)Nc1cc(C[C@H]2C[C@@H](C(F)(F)F)NC2=O)ccn1)C1CCC(F)(F)CC1 [Example 224, N-((S)-1-(4,4-difluorocyclohexyl)-2-oxo-2-((4-(((3S,5S)-2-oxo-5-(trifluoromethyl)pyrrolidin-3-yl)methyl)pyridin-2-yl)amino)ethyl)-1-methyl-1H-pyrazole-5-carboxamide]
17 | 105 | CC(C)n1nccc1C(=O)N[C@H](C(=O)Nc1cc(C[C@H]2C[C@@H](C(F)(F)F)NC2=O)ccn1)C1CCC(F)(F)CC1 [Example 225, N-((S)-1-(4,4-difluorocyclohexyl)-2-oxo-2-((4-(((3S,5S)-2-oxo-5-(trifluoromethyl)pyrrolidin-3-yl)methyl)pyridin-2-yl)amino)ethyl)-1-isopropyl-1H-pyrazole-5-carboxamide]
18 | 42 | COC[C@H](c1ccnc(NC(=O)[C@@H](NC(=O)c2nonc2C)C(C2CC2)C2CC2)c1)N1C[C@@H](C(F)(F)F)NC1=O [Example 226, N—((S)-1,1-Dicyclopropyl-3-((4-((S)-2-methoxy-1-((S)-2-oxo-4-(trifluoro-methyl)imidazolidin-1-yl)ethyl)pyridin-2-yl)amino)-3-oxopropan-2-yl)-4-methyl-1,2,5-oxadiazole-3-carboxamide]
19 | 20 | COC[C@H](c1ccnc(NC(=O)[C@@H](NC(=O)c2nonc2C2CC2)C(C2CC2)C2CC2)c1)N1C[C@@H](C(F)(F)F)NC1=O [Example 227, 4-cyclopropyl-N-((S)-1,1-dicyclopropyl-3-((4-((S)-2-methoxy-1-((S)-2-oxo-4-(trifluoromethyl)imidazolidin-1-yl)ethyl)pyridin-2-yl)amino)-3-oxopropan-2-yl)-1,2,5-oxadiazole-3-carboxamide]
20 | 62 | COC[C@H](c1ccnc(NC(=O)[C@@H](NC(=O)c2ccnn2C)C(C2CC2)C2CC2)c1)N1C[C@@H](C(F)(F)F)NC1=O [Example 228, N-((S)-1,1-dicyclopropyl-3-((4-((S)-2-methoxy-1-((S)-2-oxo-4-(trifluoromethyl)imidazolidin-1-yl)ethyl)pyridin-2-yl)amino)-3-oxopropan-2-yl)-1-methyl-1H-pyrazole-5-carboxamide]
21 | 86 | COC[C@H](c1ccnc(NC(=O)[C@@H](NC(=O)c2ccnn2C(C)C)C(C2CC2)C2CC2)c1)N1C[C@@H](C(F)(F)F)NC1=O [Example 229, N-((S)-1,1-dicyclopropyl-3-((4-((S)-2-methoxy-1-((S)-2-oxo-4-(trifluoromethyl)imidazolidin-1-yl)ethyl)pyridin-2-yl)amino)-3-oxopropan-2-yl)-1-isopropyl-1H-pyrazole-5-carboxamide]
22 | 38 | [2H]C(c1ccnc(NC(=O)[C@@H](NC(=O)c2nonc2C2CC2)[C@H]2CC[C@H](C)CC2)c1)N1C[C@@H](C(F)(F)F)NC1=O (stereo partly drawn) [Example 231, 4-Cyclopropyl-N-((1S)-1-((1r,4S)-4-methylcyclohexyl)-2-oxo-2-((4-(((S)-2-oxo-4-(trifluoromethyl)imidazolidin-1-yl)methyl-d)pyridin-2-yl)amino)ethyl)-1,2,5-oxadiazole-3-carboxamide]
